Values quoted from earlier work as cited in US7442701B2, “Amino-heterocycles as VR-1 antagonists for treating pain” (Merck Sharp & Dohme Ltd., priority 2002, dated 2008).

Biological target: VR1 (Rattus norvegicus, UniProt O35433)
Conditions: Wahl et al., Mol. Pharmacol., 59:9, 2001

Chain of VR1 (O35433 whole entry): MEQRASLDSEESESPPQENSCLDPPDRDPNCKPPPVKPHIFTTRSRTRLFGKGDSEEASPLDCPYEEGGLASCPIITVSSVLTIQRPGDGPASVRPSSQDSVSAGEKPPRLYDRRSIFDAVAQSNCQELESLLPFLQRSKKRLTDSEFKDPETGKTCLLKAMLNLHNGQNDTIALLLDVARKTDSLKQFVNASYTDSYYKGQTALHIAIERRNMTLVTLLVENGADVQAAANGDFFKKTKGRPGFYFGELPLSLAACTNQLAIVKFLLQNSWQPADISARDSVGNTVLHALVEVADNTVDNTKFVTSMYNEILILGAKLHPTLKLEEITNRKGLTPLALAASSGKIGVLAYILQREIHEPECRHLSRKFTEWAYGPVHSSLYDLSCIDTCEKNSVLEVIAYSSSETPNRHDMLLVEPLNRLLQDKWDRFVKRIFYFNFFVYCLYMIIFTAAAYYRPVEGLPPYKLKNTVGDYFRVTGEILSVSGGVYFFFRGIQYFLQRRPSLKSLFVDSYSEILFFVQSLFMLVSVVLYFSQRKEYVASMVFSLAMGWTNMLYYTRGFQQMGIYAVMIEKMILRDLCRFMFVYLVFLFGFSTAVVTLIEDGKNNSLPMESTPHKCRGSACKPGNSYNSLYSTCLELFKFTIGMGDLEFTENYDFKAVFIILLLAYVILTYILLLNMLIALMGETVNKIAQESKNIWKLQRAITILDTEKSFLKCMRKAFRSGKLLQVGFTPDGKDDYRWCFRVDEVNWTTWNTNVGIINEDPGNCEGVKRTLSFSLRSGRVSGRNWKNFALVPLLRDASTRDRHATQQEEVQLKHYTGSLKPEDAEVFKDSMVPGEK

Q: With C=C(C)[C@]12C[C@@H](C)[C@@]34O[C@](Cc5ccccc5)(O[C@@H]1[C@@H]3C=C(COC(=O)Cc1cc(I)c(O)c(OC)c1)C[C@]1(O)C(=O)C(C)=C[C@@H]41)O2 [Iodo-resiniferatoxin] as the molecule, how does the “antagonist of VR1” value read?
A: nanomolar antagonist
